Experiments:
[1] = tested on: neuropathic mechanical hyperalgesia; test: model of neuropathic pain in the guinea pig (partial sciatic nerve ligation, mechanical hyperalgesia); format: in vivo, Dunkin Hartley guinea pigs; details: paw withdrawal threshold, up to 6 hours
Description: The direct activity of the compound of formula I in the treatment of neuropathic pain is evidenced, for example, in the following model of neuropathic pain in the guinea pig: Dunkin Hartley guinea pigs are anaesthetised with enflurane (in N2O:O2 for guinea pigs) and the left sciatic nerve is exposed and partially ligated with thread. This procedure produces a mechanical hyperalgesia, which develops within 2-3 days and is maintained for at least 4 weeks. Paw withdrawal thresholds to a pressure stimulus are measured using an analgesymeter. Mechanical thresholds are taken on both the ipsilateral (ligated) and contralateral (unligated) paw prior to and then up to 6 hours following drug or vehicule administration. Reversal of hyperalgesia at each time point is calculated. Groups of 6 animals are used. Statistical analysis is carried out on withdrawal threshold readings using ANOVA followed by Tukey's HSD test.

[2] = tested on: chronic pain in patients with diabetic neuropathy; test: clinical trials in chronic pain in patients with diabetic neuropathy; format: in vivo; details: Maintenance and Follow-up Periods
Description: The activity of the compound of formula I in the treatment of neuropathic pain and related disorders can be confirmed in clinical trials evaluating the efficacy of a compound in treating chronic pain in patients with diabetic neuropathy.

GABA turnover = GABA turnover determination after maximal inhibition of GABA-T; format: in vivo; details: doses of 30 to about 300 mg/kg p.o.
Description: The activity of the compound of formula I on GABA turnover is evidenced in the following experiment: The determination of GABA turnover Is based on the linear increase in GABA level observed after the maximal inhibition of gamma-aminobutyric acid transaminase (GABA-T). The values obtained with this approach for the rate of GABA synthesis are independent of the inhibitors used and within the catalytic capacity of the enzymes involved in the GABA shunt.

[3] = tested on: social withdrawal of intruder mice; test: social withdrawal of intruder mice; format: in vivo; details: dose range of 1 to about 100 mg/kg p.o.
Description: The activity of the compound of formula I in the treatment of affective and attention disorders treatment is also evidenced, for example, in tests suitable for detecting drugs having potential behavioural desinhibitory and/or sociotropic effects which are thought to be relevant for recovery from social withdrawal, a cardinal feature of depression and related psychiatric conditions. For instance, drug effects on social withdrawal of intruder mice can be evaluated by using the basic method as described in Triangle, 1982, 21:95-105 and J. Clin. Psychiatry, 1994, 55:9 (suppl. B) 4-7.

SMILES: NC(=O)N1c2ccccc2CC(O)c2ccccc21 (centres unmarked) [compound of formula I, 10-hydroxy-10,11-dihydro-carbamazepine]
- reversal of neuropathic mechanical hyperalgesia ([1]; 3 to about 100 mg/kg s.c.): significantly and dose-dependently reverses
- reversal of neuropathic mechanical hyperalgesia ([1]; 10 to about 100 mg/kg p.o.): significantly and dose-dependently reverses
- pain severity ratings relative to placebo [2]: decrease pain severity ratings
- GABA turnover rate (GABA turnover): dose-dependently inhibits
- social investigation in the treated mouse [3]: increases social investigation
